Test results from patent US20150299219A1, “BICYCLIC PYRAZOLONE COMPOUNDS AND METHODS OF USE” (Calitor Sciences, LLC, priority 2014, published 2015).

What was measured:
[1] = Compound stability in rat liver microsomes; format: in vitro ADME; details: for half-life: pH 7.4, 0.5 mg protein/mL, NADPH, 37° C.; for CLint scaled: pH 7.4, in vivo CLint extrapolated
Method: Human or rat liver microsomes incubations were conducted in duplicate in polypropylene tubes. The typical incubation mixtures consisted of human or rat liver microsomes (0.5 mg protein/mL), compounds of interest (5 μM) and NADPH (1.0 mM) in a total volume of 200 μL potassium phosphate buffer (PBS, 100 mM, pH 7.4). Compounds were dissolved in DMSO and diluted with PBS such that the final concentration of DMSO was 0.05%. The enzymatic reactions were commenced with the addition of protein after a 3-min preincubation and incubated in a water bath open to the air at 37° C. Reactions were terminated at various time points (0, 5, 10, 15, 30, 60 min) by adding equal volume of ice-cold acetonitrile. The samples were stored at −80° C. until LC/MS/MS assays.
The concentrations of compounds in the incubation mixtures of human or rat liver microsomes were determined by a LC/MS/MS method. The ranges of the linearity in the concentration range were determined for each tested compounds.
A parallel incubation was performed using denatured microsomes as the negative control, and reactions were terminated at various time points (0, 15, 60 min) after incubation at 37° C.
Dextromethorphan (70 μM) was selected as the positive control, and reactions were terminated at various time points (0, 5, 10, 15, 30, 60 min) after incubation at 37° C. Both positive and negative control samples were included in each assay to ensure the integrity of the microsomal incubation system.
Alternatively, the stability of some of the compounds disclosed herein in human (or rat) liver microsomes were also conducted in the following protocol. The incubations were conducted in duplicate in polypropylene tubes. The typical incubation mixtures consisted of liver microsomes (final concentration: 0.5 mg protein/mL), compounds (final concentration: 1.5 μM) in a total volume of 30 μL K-buffer (contain 1.0 mM EDTA, 100 mM, pH7.4). Compounds were dissolved in DMSO and diluted with K-buffer such that the final concentration of DMSO was 0.2%. The enzymatic reactions were commenced with the addition of 15 μL of NADPH (final concentration: 2 mM) after 10 min preincubation and incubated in a 37° C. incubator. Reactions were terminated at various time points (0, 15, 30, 60 min) by adding 135 μL acetonitrile (contain IS). Protein is removed by centrifugation with 4000 rpm, 10 min. Supernatant was collected for LCMS/MS analysis
In the above protocol, ketanserin (1 μM) was selected as the positive control, and reactions were terminated at various time points (0, 15, 30, 60 min) after incubation at 37° C. The positive control sample was included in each assay to ensure the integrity of the microsomal incubation system.
The concentrations of compounds in human or rat liver microsome incubations were plotted as a percentage of the relevant zero time point control for each reaction. The in vivo CLint were extrapolated (ref: Naritomi, Y.; Terashita, S.; Kimura, S.; Suzuki, A.; Kagayama, A.; and Sugiyama, Y.; Prediction of human hepatic clearance from in vivo animal experiments and in vitro metabolic studies with liver microsomes from animals and humans. Drug Metab. Dispos., 2001, 29: 1316-1324).

[2] = target: T1, Mer (h) (Homo sapiens, UniProt Q12866); experiment: Mer (h) kinase assay; format: biochemical
T1 construct: purchased Millipore UK Ltd
T1 sequence (Q12866 21-999): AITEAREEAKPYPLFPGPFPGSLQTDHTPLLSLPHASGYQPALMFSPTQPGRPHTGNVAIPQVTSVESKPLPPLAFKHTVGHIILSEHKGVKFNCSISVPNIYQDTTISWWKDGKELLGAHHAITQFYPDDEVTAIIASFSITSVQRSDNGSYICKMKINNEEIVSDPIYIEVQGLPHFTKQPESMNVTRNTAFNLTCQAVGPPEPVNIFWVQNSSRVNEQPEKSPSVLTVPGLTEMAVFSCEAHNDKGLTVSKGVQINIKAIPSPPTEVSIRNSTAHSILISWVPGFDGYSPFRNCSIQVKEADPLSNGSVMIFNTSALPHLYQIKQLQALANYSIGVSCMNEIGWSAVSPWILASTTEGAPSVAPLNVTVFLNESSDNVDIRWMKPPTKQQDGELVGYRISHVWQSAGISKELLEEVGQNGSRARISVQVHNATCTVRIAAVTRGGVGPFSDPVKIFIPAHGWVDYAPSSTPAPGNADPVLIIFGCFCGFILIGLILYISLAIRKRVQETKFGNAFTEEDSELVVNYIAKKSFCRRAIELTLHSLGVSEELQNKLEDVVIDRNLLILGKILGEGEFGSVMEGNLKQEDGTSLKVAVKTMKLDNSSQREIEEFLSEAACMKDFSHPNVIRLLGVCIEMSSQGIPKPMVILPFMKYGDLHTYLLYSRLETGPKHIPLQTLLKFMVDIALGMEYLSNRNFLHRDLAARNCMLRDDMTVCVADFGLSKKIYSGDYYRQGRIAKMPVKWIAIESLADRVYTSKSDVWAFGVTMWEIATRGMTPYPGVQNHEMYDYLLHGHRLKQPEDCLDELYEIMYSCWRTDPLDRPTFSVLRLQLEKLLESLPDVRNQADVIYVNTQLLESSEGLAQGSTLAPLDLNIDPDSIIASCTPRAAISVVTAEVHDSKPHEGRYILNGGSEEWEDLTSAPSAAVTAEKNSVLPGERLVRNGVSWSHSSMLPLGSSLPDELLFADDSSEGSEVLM
Method: The above assay procedure can be used to determine the IC50 for inhibition and/or the inhibition constant, Ki. The IC50 is defined as the concentration of compound required to reduce the enzyme activity by 50% under the condition of the assay. The IC50 value is estimated by preparing a 10 point curve using a 1/2 log dilution series (for example, a typical curve may be prepared using the following compound concentrations: 10 μM, 3 μM, 1 μM, 0.3 μM, 0.1 μM, 0.03 μM, 0.01 μM, 0.003 μM, 0.001 μM and 0 μM).
Mer (h) is incubated with 8 mM MOPS pH 7.0, 0.2 mM EDTA, 30 mM NaCl, 250 μM GGMEDIYFEFMGGKKK, 10 mM MgAcetate and [γ-^33P-ATP] (specific activity approx. 500 cpm/pmol, concentration as required). The reaction is initiated by the addition of the MgATP mix. After incubation for 40 minutes at room temperature, the reaction is stopped by the addition of 3% phosphoric acid solution. 10 μL of the reaction is then spotted onto a P30 filtermat and washed three times for 5 minutes in 75 mM phosphoric acid and once in methanol prior to drying and scintillation counting.
The kinase assays described herein were performed at Millipore UK Ltd, Dundee Technology Park, Dundee DD2 1SW, UK.

Structure (SMILES)	half-life [1] [h]	CLint scaled [1] [mL/min/kg]	IC50 [2] [nM]
CC(=O)Nc1cc(Oc2ccc(NC(=O)c3c4n(n(-c5ccccc5)c3=O)CCC4)cc2)ccn1 [Ex. 3, N-(4-((2-acetamidopyridin-4-yl)oxy)phenyl)-2-oxo-1-phenyl-2,4,5,6-tetrahydro-1H-pyrrolo[1,2-b]pyrazole-3-carboxamide]	5.7	7.26	35
CC(=O)Nc1cc(Oc2ccc(NC(=O)c3c4n(n(-c5ccccc5)c3=O)CCOC4)nc2)ccn1 [Ex. 12, N-(5-((2-acetamidopyridin-4-yl)oxy)pyridin-2-yl)-2-oxo-1-phenyl-2,4,6,7-tetrahydro-1H-pyrazolo[5,1-c][1,4]oxazine-3-carboxamide]	16.6	2.49	74

The next compounds have a lower IC50 [2] than those just listed; values first:

half-life [1] [h]	CLint scaled [1] [mL/min/kg]	IC50 [2] [nM]	Structure (SMILES)
3.32	12.5	8	O=C(Nc1ccc(Oc2ccnc(NC(=O)C3CC3)c2)cn1)c1c2n(n(-c3ccccc3)c1=O)CCC2 [Ex. 14, N-(5-((2-(cyclopropanecarboxamido)pyridin-4-yl)oxy)pyridin-2-yl)-2-oxo-1-phenyl-2,4,5,6-tetrahydro-1H-pyrrolo[1,2-b]pyrazole-3-carboxamide]
2.87	14.4	5	O=C(Nc1ccc(Oc2ccnc(NC(=O)C3CC3)c2)cc1)c1c2n(n(-c3ccccc3)c1=O)CCOC2 [Ex. 19, N-(4-((2-(cyclopropanecarboxamido)pyridin-4-yl)oxy)phenyl)-2-oxo-1-phenyl-2,4,6,7-tetrahydro-1H-pyrazolo[5,1-c][1,4]oxazine-3-carboxamide]
3.19	13	3	O=C(Nc1ccc(Oc2ccnc(NC(=O)C3CC3)c2)cc1)c1c2n(n(-c3ccccc3)c1=O)CCC2 [Ex. 2, N-(4-((2-(cyclopropanecarboxamido)pyridin-4-yl)oxy)phenyl)-2-oxo-1-phenyl-2,4,5,6-tetrahydro-1H-pyrrolo[1,2-b]pyrazole-3-carboxamide]
